Reference: ChEMBL document CHEMBL5620350, “Recent advances in the development of dual ALK/ROS1 inhibitors for non-small cell lung cancer therapy” (Eur J Med Chem, 2023)

Key:
[1] = molecular target: T1, Proto-oncogene tyrosine-protein kinase ROS (Homo sapiens, UniProt P08922); experiment: Inhibition of human ROS1 using KKKSPGEYVNIEFG as substrate incubated for 120 mins in presence of [gamma-33P]-ATP
[2] = Inhibition of human […] G1202R mutant using Casein as substrate incubated for 120 mins in presence of [gamma-33P]-ATP
TGF-beta receptor type-1 = molecular target: T2, TGF-beta receptor type-1 (Homo sapiens, UniProt P36897); experiment: Inhibition of human […] using Casein as substrate incubated for 120 mins in presence of [gamma-33P]-ATP
T2 sequence (P36897 whole entry): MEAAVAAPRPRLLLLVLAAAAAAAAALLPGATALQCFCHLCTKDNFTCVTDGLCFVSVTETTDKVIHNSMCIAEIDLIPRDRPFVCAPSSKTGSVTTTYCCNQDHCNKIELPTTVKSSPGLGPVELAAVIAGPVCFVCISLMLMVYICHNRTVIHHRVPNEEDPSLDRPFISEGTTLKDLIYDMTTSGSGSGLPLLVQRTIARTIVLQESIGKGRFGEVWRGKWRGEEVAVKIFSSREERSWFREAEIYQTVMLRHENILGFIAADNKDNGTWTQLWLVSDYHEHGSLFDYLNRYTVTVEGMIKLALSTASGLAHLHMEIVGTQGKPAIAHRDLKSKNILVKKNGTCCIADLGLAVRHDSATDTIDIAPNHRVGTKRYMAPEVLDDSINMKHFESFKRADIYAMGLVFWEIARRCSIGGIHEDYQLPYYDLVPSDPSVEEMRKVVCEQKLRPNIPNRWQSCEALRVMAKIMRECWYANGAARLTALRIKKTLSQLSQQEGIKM

[3] = molecular target: T3, Proto-oncogene tyrosine-protein kinase ROS (Homo sapiens, UniProt P08922, G2032R); experiment: Inhibition of human ROS1 G2032R mutant using KKKSPGEYVNIEFG as substrate incubated for 120 mins in presence of [gamma-33P]-ATP
HCC78 = experiment: Cytotoxicity against human HCC78 cells incubated for 72 hrs by MTT assay; assay type: functional, cell-based
NCI-H2228 = experiment: Cytotoxicity against human NCI-H2228 cells incubated for 72 hrs by MTT assay; assay type: functional, cell-based; settings: NCI-H2228, 72 h
BaF3 [4] = experiment: Antitumor activity against mouse BaF3 cells harboring ROS1 G2032 mutant assessed as tumor growth inhibition at 2.2 nM; assay type: functional; parameters: scale not given: the % may be the effect or the level left
BaF3 [5] = experiment: Antitumor activity against mouse BaF3 cells harboring wild type ROS1 assessed as tumor growth inhibition at 2.2 nM; assay type: functional; parameters: scale not given: the % may be the effect or the level left
BaF3 [6] = experiment: Antitumor activity against mouse BaF3 cells harboring EML4 ALK V1 G1202R mutant assessed as tumor growth inhibition at 2.2 nM; assay type: functional; parameters: scale not given: the % may be the effect or the level left
[7] = molecular target: T1, Proto-oncogene tyrosine-protein kinase ROS; experiment: Inhibition of recombinant human ROS1 preincubated for 5 to 10 mins followed by substrate and ATP addition and measured after 60 mins by TR-FRET assay
[8] = molecular target: T4, ALK tyrosine kinase receptor (Homo sapiens, UniProt Q9UM73); experiment: Inhibition of human ALK preincubated for 5 to 10 mins followed by substrate and ATP addition and measured after 60 mins by TR-FRET assay
[9] = molecular target: T3, Proto-oncogene tyrosine-protein kinase ROS; experiment: Inhibition of recombinant human ROS1 G2032R mutant preincubated for 5 to 10 mins followed by substrate and ATP addition and measured after 60 mins by TR-FRET assay
[10] = molecular target: ALK tyrosine kinase receptor (Homo sapiens, UniProt Q9UM73, G1202R/L1196M); experiment: Inhibition of human ALK L1196M/G1202R double mutant preincubated for 5 to 10 mins followed by substrate and ATP addition and measured after 60 mins by TR-FRET assay
[11] = molecular target: T4, ALK tyrosine kinase receptor; experiment: Inhibition of wild-type ALK (unknown origin)
[12] = molecular target: T1, Proto-oncogene tyrosine-protein kinase ROS; experiment: Inhibition of ROS1 (unknown origin) incubated for 1 hr by HTRF assay
[13] = molecular target: T4, ALK tyrosine kinase receptor; experiment: Inhibition of ALK (unknown origin) incubated for 1 hr by HTRF assay
[14] = molecular target: T4, ALK tyrosine kinase receptor; experiment: Inhibition of wild type ALK (unknown origin) expressed in BaF3 cells incubated for 4 hrs; assay type: cell-based
[15] = molecular target: T1, Proto-oncogene tyrosine-protein kinase ROS; experiment: Inhibition of wild type ROS1 (unknown origin) expressed in BaF3 cells incubated for 4 hrs; assay type: cell-based

T3 sequence (P08922 28-2347 G2032R limits assumed): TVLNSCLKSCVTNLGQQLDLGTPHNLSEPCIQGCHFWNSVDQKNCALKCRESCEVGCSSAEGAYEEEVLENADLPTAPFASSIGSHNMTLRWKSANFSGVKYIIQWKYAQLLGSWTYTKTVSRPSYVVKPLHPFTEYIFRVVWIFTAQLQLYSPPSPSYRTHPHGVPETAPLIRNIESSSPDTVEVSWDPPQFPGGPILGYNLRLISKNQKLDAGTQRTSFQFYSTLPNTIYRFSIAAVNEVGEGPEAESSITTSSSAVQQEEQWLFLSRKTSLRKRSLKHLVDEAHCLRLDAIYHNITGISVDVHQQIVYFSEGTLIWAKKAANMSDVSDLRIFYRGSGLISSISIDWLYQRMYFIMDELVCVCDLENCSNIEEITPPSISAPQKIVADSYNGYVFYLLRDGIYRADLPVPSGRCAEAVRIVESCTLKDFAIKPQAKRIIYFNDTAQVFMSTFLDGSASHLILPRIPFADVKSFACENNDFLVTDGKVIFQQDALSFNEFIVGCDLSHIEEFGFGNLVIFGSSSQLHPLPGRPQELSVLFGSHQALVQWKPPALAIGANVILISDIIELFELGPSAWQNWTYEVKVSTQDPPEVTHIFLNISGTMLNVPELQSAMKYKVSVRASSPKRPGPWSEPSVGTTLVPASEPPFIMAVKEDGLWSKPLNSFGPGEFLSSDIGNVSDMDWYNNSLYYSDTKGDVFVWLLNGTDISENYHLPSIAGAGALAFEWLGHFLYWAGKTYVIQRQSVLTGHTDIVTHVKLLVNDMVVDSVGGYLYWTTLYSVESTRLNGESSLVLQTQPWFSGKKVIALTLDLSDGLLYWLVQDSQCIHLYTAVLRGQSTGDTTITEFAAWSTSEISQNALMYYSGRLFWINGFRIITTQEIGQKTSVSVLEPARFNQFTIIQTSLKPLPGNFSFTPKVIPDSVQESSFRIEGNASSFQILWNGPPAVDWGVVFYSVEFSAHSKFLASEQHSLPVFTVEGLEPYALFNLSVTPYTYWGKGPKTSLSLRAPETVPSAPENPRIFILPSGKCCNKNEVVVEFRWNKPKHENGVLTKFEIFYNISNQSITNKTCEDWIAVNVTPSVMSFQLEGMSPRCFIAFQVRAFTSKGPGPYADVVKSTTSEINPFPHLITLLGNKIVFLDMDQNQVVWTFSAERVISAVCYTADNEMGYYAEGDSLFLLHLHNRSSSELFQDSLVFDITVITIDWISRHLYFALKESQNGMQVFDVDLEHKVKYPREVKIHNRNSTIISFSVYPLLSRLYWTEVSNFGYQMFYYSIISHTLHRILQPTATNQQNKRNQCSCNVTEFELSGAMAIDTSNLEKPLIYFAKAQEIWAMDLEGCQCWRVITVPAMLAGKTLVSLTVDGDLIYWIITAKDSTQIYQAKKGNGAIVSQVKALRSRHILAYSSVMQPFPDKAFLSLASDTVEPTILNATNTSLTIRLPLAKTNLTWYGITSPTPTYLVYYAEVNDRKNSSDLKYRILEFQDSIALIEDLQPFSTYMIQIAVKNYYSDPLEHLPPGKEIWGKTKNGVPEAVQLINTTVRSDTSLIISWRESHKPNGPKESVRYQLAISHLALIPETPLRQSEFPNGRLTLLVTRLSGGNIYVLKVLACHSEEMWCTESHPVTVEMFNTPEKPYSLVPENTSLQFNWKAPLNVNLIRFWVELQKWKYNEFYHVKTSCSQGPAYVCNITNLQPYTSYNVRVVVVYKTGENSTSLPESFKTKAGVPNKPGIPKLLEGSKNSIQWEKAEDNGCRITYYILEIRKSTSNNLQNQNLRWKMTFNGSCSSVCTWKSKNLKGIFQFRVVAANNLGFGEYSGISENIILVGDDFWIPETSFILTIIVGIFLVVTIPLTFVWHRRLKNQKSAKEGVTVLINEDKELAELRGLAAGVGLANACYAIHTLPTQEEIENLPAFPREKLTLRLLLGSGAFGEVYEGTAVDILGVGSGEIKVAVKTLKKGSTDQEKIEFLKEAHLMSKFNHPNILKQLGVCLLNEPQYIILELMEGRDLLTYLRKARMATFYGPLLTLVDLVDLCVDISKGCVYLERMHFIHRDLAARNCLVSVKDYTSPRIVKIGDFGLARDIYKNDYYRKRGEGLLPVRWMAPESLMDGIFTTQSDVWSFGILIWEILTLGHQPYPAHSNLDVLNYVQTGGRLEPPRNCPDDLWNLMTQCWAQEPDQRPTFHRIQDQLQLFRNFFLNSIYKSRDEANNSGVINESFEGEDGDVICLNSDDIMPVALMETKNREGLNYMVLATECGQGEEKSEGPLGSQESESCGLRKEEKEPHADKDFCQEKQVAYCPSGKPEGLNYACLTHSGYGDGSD
T1 sequence (P08922 whole entry): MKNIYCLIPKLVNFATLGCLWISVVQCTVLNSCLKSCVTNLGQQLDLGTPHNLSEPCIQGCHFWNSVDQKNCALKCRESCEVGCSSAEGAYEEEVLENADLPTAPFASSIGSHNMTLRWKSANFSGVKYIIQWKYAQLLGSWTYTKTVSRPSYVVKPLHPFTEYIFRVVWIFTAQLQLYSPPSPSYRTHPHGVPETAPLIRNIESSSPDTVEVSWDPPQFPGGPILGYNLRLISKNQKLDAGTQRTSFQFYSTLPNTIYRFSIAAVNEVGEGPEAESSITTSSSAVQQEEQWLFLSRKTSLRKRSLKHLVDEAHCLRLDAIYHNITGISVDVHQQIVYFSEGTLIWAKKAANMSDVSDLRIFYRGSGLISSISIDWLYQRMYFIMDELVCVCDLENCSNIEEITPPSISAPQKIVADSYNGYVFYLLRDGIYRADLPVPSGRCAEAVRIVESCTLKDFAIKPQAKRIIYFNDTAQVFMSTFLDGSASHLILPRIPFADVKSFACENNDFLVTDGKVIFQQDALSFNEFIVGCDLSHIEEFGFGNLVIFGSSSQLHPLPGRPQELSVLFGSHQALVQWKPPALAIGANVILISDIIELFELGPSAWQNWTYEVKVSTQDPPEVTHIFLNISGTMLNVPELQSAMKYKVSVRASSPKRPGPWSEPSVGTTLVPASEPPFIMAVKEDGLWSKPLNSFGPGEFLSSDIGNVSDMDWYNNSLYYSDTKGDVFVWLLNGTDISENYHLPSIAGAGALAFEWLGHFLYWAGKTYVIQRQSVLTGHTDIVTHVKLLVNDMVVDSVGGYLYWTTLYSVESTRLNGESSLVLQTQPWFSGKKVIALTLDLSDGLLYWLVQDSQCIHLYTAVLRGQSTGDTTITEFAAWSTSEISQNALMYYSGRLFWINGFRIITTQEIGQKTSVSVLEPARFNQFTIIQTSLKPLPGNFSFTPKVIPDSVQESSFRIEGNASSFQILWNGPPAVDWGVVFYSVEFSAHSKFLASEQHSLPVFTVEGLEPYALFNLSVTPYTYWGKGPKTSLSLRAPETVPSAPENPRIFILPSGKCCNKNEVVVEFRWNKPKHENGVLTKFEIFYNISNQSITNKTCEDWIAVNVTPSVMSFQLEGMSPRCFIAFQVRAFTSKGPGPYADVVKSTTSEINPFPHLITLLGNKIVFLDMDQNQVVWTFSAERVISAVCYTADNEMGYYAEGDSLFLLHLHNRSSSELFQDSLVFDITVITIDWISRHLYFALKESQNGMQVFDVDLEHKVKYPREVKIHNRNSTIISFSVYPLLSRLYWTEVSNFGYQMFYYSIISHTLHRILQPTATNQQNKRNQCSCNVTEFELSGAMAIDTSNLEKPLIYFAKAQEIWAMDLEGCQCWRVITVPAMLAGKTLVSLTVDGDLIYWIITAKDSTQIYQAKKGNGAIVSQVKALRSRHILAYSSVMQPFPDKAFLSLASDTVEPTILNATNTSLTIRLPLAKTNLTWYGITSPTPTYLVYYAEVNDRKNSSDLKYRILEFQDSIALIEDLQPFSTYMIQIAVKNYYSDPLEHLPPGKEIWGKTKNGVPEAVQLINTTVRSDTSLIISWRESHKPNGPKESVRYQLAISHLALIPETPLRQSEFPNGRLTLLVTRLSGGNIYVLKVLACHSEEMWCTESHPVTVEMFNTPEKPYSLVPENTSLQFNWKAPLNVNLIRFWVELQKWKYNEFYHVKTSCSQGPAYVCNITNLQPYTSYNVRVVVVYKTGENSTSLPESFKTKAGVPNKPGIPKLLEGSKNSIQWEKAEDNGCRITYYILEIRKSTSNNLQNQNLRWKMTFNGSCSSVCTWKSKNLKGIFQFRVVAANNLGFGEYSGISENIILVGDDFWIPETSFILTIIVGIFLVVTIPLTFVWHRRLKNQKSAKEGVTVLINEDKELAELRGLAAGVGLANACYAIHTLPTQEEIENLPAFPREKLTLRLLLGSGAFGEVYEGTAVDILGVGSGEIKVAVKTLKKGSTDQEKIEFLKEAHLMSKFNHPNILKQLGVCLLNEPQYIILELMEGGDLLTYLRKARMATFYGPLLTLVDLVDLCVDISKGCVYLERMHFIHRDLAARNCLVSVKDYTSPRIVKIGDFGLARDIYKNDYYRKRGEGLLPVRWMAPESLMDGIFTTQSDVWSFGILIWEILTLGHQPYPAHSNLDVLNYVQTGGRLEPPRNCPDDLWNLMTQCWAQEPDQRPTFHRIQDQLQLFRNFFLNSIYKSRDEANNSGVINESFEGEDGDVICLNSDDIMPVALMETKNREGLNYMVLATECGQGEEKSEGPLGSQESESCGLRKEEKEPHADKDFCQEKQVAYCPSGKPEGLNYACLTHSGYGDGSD

SMILES: CC(C)Oc1ccc(F)cc1[C@@H](C)Nc1ccn2ncc(C3=NOC(C)N3)c2n1 (some centres not stated)
- IC50 [1]: < 0.5 nM
- IC50 [2]: < 50 nM
- IC50 (TGF-beta receptor type-1): < 50 nM
- IC50 [3]: < 0.5 nM

SMILES: COc1ccc(CNC(=O)Cn2nc(-c3ccccc3)c3cnc4ccccc4c32)cc1
- IC50 (HCC78; Homo sapiens, HCC78, 72 h): 1620 nM
- IC50 (HCC78; hcc78): 1610 nM
- IC50 (NCI-H2228): 2710 nM

SMILES: C[C@H]1CNC(=O)c2cnn3ccc(nc23)N[C@H](C)c2cc(F)ccc2O1 [REPOTRECTINIB]
- Activity (BaF3 [4]): 99%
- Activity (BaF3 [5]): 197%
- Activity (BaF3 [6]): 99%

SMILES: C[C@H]1Nc2ccn3ncc(c3n2)C(=O)N[C@@]2(C)CC3=CC(F)=CC1C3O2 (some centres not stated)
- IC50 [7]: 0.84 nM
- IC50 [8]: 2.02 nM
- IC50 [9]: 0.34 nM
- IC50 [10]: 20.7 nM

SMILES: COc1ccc(F)cc1[C@@H](C)Nc1ccn2ncc(C3=NOC(C)(C)N3)c2n1
- IC50 [1]: < 0.5 nM
- IC50 [2]: < 50 nM
- IC50 (TGF-beta receptor type-1): < 50 nM
- IC50 [3]: < 0.5 nM

SMILES: O=C(Nc1n[nH]c2ncc(S(=O)(=O)c3cccc(F)c3)cc12)c1ccc(N2CCOCC2)cc1
- IC50 [11]: 0.6 nM

SMILES: COc1cc(-n2cccc2CN2CCN(C)CC2)ccc1Nc1ncc(Cl)c(Nc2ccccc2NS(C)(=O)=O)n1
- IC50 [12]: 3.6 nM
- IC50 [13]: 1.8 nM

SMILES: CCOc1ccc(F)cc1[C@@H](C)Nc1ccn2ncc(C3=NOC(C)N3)c2n1 (some centres not stated)
- IC50 [1]: < 0.5 nM
- IC50 [2]: < 50 nM
- IC50 (TGF-beta receptor type-1): < 50 nM
- IC50 [3]: < 0.5 nM

SMILES: C[C@H]1Nc2ccn3ncc(c3n2)C(=O)NC[C@@H](CF)Oc2ccc(F)cc21
- IC50 [14]: 2 nM
- IC50 [15]: 2 nM
